In patent US20110044952A1, “AMPLIFICATION OF CANCER-SPECIFIC ONCOLYTIC VIRAL INFECTION BY HISTONE DEACETYLASE INHIBITORS” (Ottawa Health Research Institute, priority 2007, published 2011):

These compounds were tested on VSV-d51-GFP.
Type: cell-based
`Nc1ccccc1NC(=O)c1ccc(CNC(=O)OCc2cccnc2)cc1` [MS-275] was tested, and the “amount of GFP-positive cells as an indication of VSV replication” value (shortened to “amount of GFP-positive cells”) was “increased the amount of GFP-positive cells”.
In the case of `O=C(/C=C/c1cccc(S(=O)(=O)Nc2ccccc2)c1)NO` [PXD101], the “amount of GFP-positive cells” value is reported as “increased the amount of GFP-positive cells”.
For `O=C(CCCCCCC(=O)Nc1ccccc1)NO` [SAHA, suberoylanilide hydroxamic acid], the “amount of GFP-positive cells” value was “increased the amount of GFP-positive cells”.
In the case of `CCCC(CCC)C(=O)O` [VPA], the “amount of GFP-positive cells” value is reported as “little to no effect”.
